“Also recorded” adds a separate entry of the source.
Experiments:
[1] = test system: several of the tested nematode species; test: Retention assay, several nematode species; format: in vivo; settings: 1 nM, 1 μM and 1 mM tested
Procedure: OP50 E. coli was grown on a standard 5 cm agar plate (made with standard Nematode Growth Medium). The bacterial lawn was 16 mm in diameter and was grown overnight at 20° C. before being used in trials. Two 4 mm spots (0.6 μL) were placed on opposite sides of the bacterial lawn (using a transparent template to guide spot placement), and several minutes elapsed for the liquid to settle in before placing nematodes down on the assay. Recording began immediately upon worm placement. 0.6 μL of the control was placed on one side of the lawn, and 0.6 μL of the experimental cue was placed on the other side of the lawn, changing the location of the cue throughout trials between left/right and top/bottom to avoid bias.
Nematodes were isolated by gender at the L4 stage the day before being used in trials as developed adults. Worms were evenly divided and placed at two points equidistant from the foci of the scoring region. Trials were recorded for 20 minutes, and frames were collected for analysis at 1 frame per second. Results were averaged from at least three different trials. For every nematode species in this study, a different total number of worms (using water in both scoring regions) was tested to determine the minimum number of worms necessary for consistent unbiased results over a 20 minute trial. The total number of worms used in the multiple species assays depended on that species' optimal parameters. 10 worms were used for P. redivivus males and females, 20 worms were used for C. elegans males and O. dolichuridae males, and 14 worms were used for S. glaseri males. The Automated Software was used to compare worm occupancy in each scoring region over time, and the Chemotaxis Index (Bargmann et al., Cell 74:515-27 (1993), which is hereby incorporated by reference in its entirety) was adapted to score preference or avoidance to each ascaroside.
A video camera attached to the microscope produced a digital video stream, which was then analyzed. The ratio of the time the average worm spent in each region of interest was calculated for every trial. For ease of implementation, all worms in a single experiment were assumed to be roughly the same size. Thus worm pixels were counted instead of whole worms, allowing fractions of a worm in the region of interest to be taken into account. It also eliminated the need for a shape-based worm identification algorithm, and allowed each frame to be analyzed independently. A band-pass filter was applied to each frame to eliminate the effect of uneven lighting and also accentuate the worms against the background. The worm was then identified after thresholding the filtered image. Throughout each experiment, the locations and sizes of the regions of interest were known. Through the filtering described above, it is known which pixels are occupied by worms and which ones are not. Thus, the ratio of worm-pixels to all pixels inside the region of interest can be calculated to produce the worm-occupancy ratio. This calculation was done for every frame, giving a plot output of worm-occupancy ratio vs. time for each region.

[2] = test system: C. elegans males; test: Attraction assay (long-range, point source); format: in vivo; settings: point source on 10 cm plate
Procedure: 10 cm standard chemotaxis plates were prepared (Bargmann et al., Cell 74:515-27 (1993), which is hereby incorporated by reference in its entirety) and stored at 4° C. until the day before use. Standard 1 cm-diameter copper pipes were sectioned into 1 cm-tall segments to use for the holding chambers. The females/hermaphrodites were isolated overnight, washed 3 times in M9 buffer, and then allowed to wander on a plate pre-conditioned with 50 uL of 1000× streptomycin for 2 hours to kill any bacteria that might produce a false positive attractant. The nematodes were then washed 3 times, and the supernatant from the last wash was placed in a copper chamber, as the control, 1 cm from the border of the 10 cm plate. The nematodes were suspended in M9 within the copper chamber, 1 cm from the border opposite the control chamber. After 6 hours, they were subsequently removed and replaced with 3 μL of 1M sodium azide. 100 C. elegans adult males were isolated overnight, washed several times in ddH2O, and placed at the center of the agar plate. After several hours, males paralyzed within 2 cm of each region were scored. The Chemotaxis Index (Bargmann et al., Cell 74:515-27 (1993), which is hereby incorporated by reference in its entirety) was then used to score male chemotaxis to either point source.

[3] = test system: C. elegans hermaphrodites and males; settings: cited from earlier work
[4] = test system: C. elegans; settings: shown previously; cited from earlier work
[5] = test system: P. pacificus; test: Dauer formation assay; format: in vivo, Pristionchus pacificus; settings: synthetic samples; first assayed at 1 μM
Procedure: Dauer formation assays were performed as described in Ogawa et al., Curr. Biol. 19:67-71 (2009), which is hereby incorporated by reference in its entirety, using heat- or kanamycin-killed E. coli OP50. Synthetic compounds were dissolved in ethanol (0.5 mM, stock solution) and combined with water to make a […] and subsequently added to 3 mL NGM-agar without peptone ([…], 0.3, 0.1 μM final concentrations).

[6] = test system: P. pacificus strain RSB020; test: Mouth-form dimorphism assay; format: in vivo, Pristionchus pacificus
Procedure: Mouth-form dimorphism assays were performed using P. pacificus strain RSB020. The synthetic compounds dissolved in ethanol (0.5 mM) were diluted with water to make 100 μl solution and subsequently added to 3 mL NGM-agar (1 μM final concentration). The assay plates were seeded with 50 μl OP50 culture in LB medium and incubated overnight at 20° C. to allow bacterial growth. Each replicate included the progeny of two mothers, which were picked as adult hermaphrodites of a consistent age (carrying 4-6 eggs) and which were all from the same P. pacificus culture plate. Following the placement of mothers on assay plates, plates were kept at 20° C. for six days, such that the entire broods were adults at the time of screening. A random sample of 50 hermaphrodite progeny was screened per plate. All animals were screened by differential interference contrast (DIC) microscopy on a Zeiss Axiskop. The following discrete characters were used to discriminate eurystomatous from stenostomatous individuals, respectively: (1) claw-shaped vs. flint-shaped (i.e. dorsoventrally symmetrical) dorsal tooth; (2) presence vs. absence of a subventral tooth; (3) strongly vs. weakly sclerotized stomatal walls. No intermediate mouth-forms were observed. Experiments were conducted in triplicate for each treatment. In assays of responses to compounds of several concentrations (1, 0.3, 0.1, 0.03, 0.01 μM final concentrations), experiments were performed as described above, with the following modifications. To allow greater resolution of responses to lower concentrations, 60 randomly screened individuals in each of five replicates per concentration per compound were assayed. All concentration-curve experiments were performed in parallel using mothers picked randomly from the same two source populations. To prepare large numbers of individual mothers for these experiments, source populations were established from virgin hermaphrodites to constrain the presence of males and were conditioned to well-fed and ambient conditions for at least one generation before mothers were picked for the assays.

[7] = test system: C. elegans hermaphrodites and males; test: Spot attraction assay; format: in vivo
Procedure: The spot attraction assays were conducted according to a previously reported method (Pungaliya et al., PNAS 106:7708-13 (2009); Srinivasan et al., Nature 454:1115-18 (2008), which are hereby incorporated by reference in their entirety). For both C. elegans hermaphrodites and males, 50-60 worms were harvested daily at the fourth larval stage (L4) and stored segregatedly by sex at 20° C. overnight, to be used as young adults the following day. For the competition experiments, two conditions were used: 120 nM ascr#3 and 10 nM icas#3 (Condition 1), or 12 μM ascr#3 and 1 μM icas#3 (Condition 2) in water containing 10% ethanol. Aliquots were stored at −20° C. in 20 μL tubes. 10% ethanol in water was used as control.
Attraction assays with hbas#3 were conducted as previously reported (Srinivasan et al., Nature 454:1115-18 (2008); Pungaliya et al., Proc. Natl. Acad. Sci. U.S.A. 106:7708-13 (2009), which are hereby incorporated by reference in their entirety). For the attraction assays, 50-60 hermaphrodite worms were harvested daily at the early fourth larval stage (L4) and stored at 20° C. overnight to be used as young adults the following day. Hbas#3 was dissolved in water containing 10% ethanol. Aliquots were stored at −20° C. in 20 μL tubes. 10% ethanol in water was used as control.

[8] = test system: C. elegans hermaphrodites; test: Quadrant chemotaxis assay; format: in vivo; settings: see FIGS. 48A-B (spot attraction and quadrant chemotaxis assays); wild-type hermaphrodites
Procedure: Chemotaxis to both non-indole and indole ascarosides was assessed on 10 cm four-quadrant petri plates (Wicks et al., Dev. Biol. 221:295-307 (2000), which is hereby incorporated by reference in its entirety). Each quadrant was separated from adjacent ones by plastic spacers (FIG. 1B). Pairs of opposite quadrants were filled with nematode growth medium (NGM) agar containing either indole ascarosides or non-indole ascarosides at different concentrations. Animals were washed gently in a S-basal buffer, placed in the center of a four-quadrant plate with ascarosides in alternating quadrants, and scored after 15 minutes and 30 minutes. A chemotaxis index was calculated as: (the number of animals on ascaroside quadrants minus the number of animals on buffer quadrants)/(total number of animals).
Chemotaxis to hbas#3 was assessed on 10 cm four-quadrant petri plates (Wicks et al., Dev. Biol. 221:295-307 (2000), which is hereby incorporated by reference in its entirety). Each quadrant was separated from adjacent ones by plastic spacers. Pairs of opposite quadrants were filled with nematode growth medium (NGM) agar containing different concentrations of hbas#3. Animals were washed gently in an S-basal buffer and placed in the center of a four-quadrant plate with ascarosides in alternating quadrants, and scored after 15 minutes and 30 minutes. A chemotaxis index was calculated as: (the number of animals on ascaroside quadrants minus the number of animals on buffer quadrants)/(total number of animals).

[9] = literature (Pungaliya 2009; Srinivasan 2008)
[10] = synthetic samples, first assayed at 1 μM

CC1O[C@@H](O[C@H](C)CCCC/C=C/C(=O)O)[C@@H](O)C[C@H]1O (stereo partly shown) [ascr#3]
preference for areas conditioned by the ascaroside [1]: preferred | lowest amount eliciting male attraction (as low as) [2]: 5 femtomol | male attraction from a distance / chemotaxis towards a point source [2]: chemotax towards | most active amount for attraction in C. elegans ([3]; from 1 μM concentration, previous study (Srinivasan 2008)): ~1 pmol | response of social and solitary hermaphrodites ([3]; high dauer-inducing concentrations, previous studies): strongly deter | attraction of males [3, 9]: strongly attracts males | response of hermaphrodites [3, 9]: repels hermaphrodites | promotion of dauer entry [4]: individually promote dauer entry

C[C@H](CC/C=C/C(=O)O)O[C@@H]1O[C@@H](C)[C@H](O)C[C@H]1O [ascr#7]
preference for areas conditioned by the ascaroside [1]: preferred

C[C@H](CCCCC(=O)O[C@@H]1C[C@@H](O)[C@H](O[C@H](C)CCCCC(=O)O)O[C@H]1C)O[C@@H]1O[C@@H](C)[C@H](O)C[C@H]1O [dasc#1, (R)-6-(((2R,3R,5R,6S)-5-(((R)-6-(((2R,3R,5R,6S)-3,5-dihydroxy-6-methyltetrahydro-2H-pyran-2-yl)oxy)heptanoyl)oxy)-3-hydroxy-6-methyltetrahydro-2H-pyran-2-yl)oxy)heptanoic acid]
dauer induction [5]: inactive in the dauer formation assay | induction of the eurystomatous mouth form [6, 10]: regulates adult morphology; also recorded: strongly induce the eurystomatous mouth form

C[C@H](CCCC/C=C/C(=O)O)O[C@@H]1O[C@@H](C)[C@H](OC(=O)c2ccc(O)cc2)C[C@H]1O [hbas#3, (8R)-(3′R-Hydroxy-5′R-(4-hydroxybenzoyloxy)-6′S-methyl-(2H)-tetrahydropyran-2′-yloxy)non-(2E)-enoic acid]
attraction in the spot attraction assay ([7]; wild-type (N2) hermaphrodites, dose dependent manner): attracted | lowest concentration with strong attraction of C. elegans (as low as) [8]: 10 femtomolar

C[C@H](CCCCC(=O)O)O[C@@H]1O[C@@H](C)[C@H](OC(=O)c2c[nH]c3ccccc23)C[C@H]1O [icas#1]
attraction in the spot attraction assay ([7]; 1 pmol, N2 hermaphrodites and him-5 males): attractive to both C. elegans sexes | attraction in the spot attraction assay ([7]; high concentrations, males and hermaphrodites): attracted both males and hermaphrodites

C[C@H](CCC(=O)O[C@H](C)[C@H](NC(=O)Nc1ncnc2c1ncn2[C@@H]1OC[C@@H](O)[C@H](O)[C@H]1O)C(=O)O)O[C@@H]1O[C@@H](C)[C@H](O)C[C@@H]1O [npar#1, (2S,3R)-3-(((R)-4-(((2R,3S,5R,6S)-3,5-dihydroxy-6-methyltetrahydro-2H-pyran-2-yl)oxy)pentanoyl)oxy)-2-(3-(9-((2R,3R,4S,5R)-3,4,5-trihydroxytetrahydro-2H-pyran-2-yl)-9H-purin-6-yl)ureido)butanoic acid]
dauer induction [5]: induces dauer arrest; also recorded: strongly induced dauer formation | induction of the eurystomatous mouth form ([6]; high concentrations): weaker induction of the eurystomatous mouth form

C[C@H](CCC(=O)O[C@@H](CNC(=O)CCC(=O)O)c1ccccc1)O[C@@H]1O[C@@H](C)[C@H](O)C[C@H]1O [pasc#9, 4-(((R)-2-(((R)-4-(((2R,3R,5R,6S)-3,5-dihydroxy-6-methyltetrahydro-2H-pyran-2-yl)oxy)pentanoyl)oxy)-2-phenylethyl)amino)-4-oxobutanoic acid]
induction of the eurystomatous mouth form ([6]; high concentrations): weaker induction of the eurystomatous mouth form

C[C@H](CCC(=O)O)O[C@@H]1O[C@@H](C)[C@H](OC(=O)[C@H](C)CNC(N)=O)C[C@H]1OC(=O)CCCCO[C@@H]1O[C@@H](C)[C@H](O)C[C@H]1O [ubas#1, (R)-4-(((2R,3R,5R,6S)-3-((5-(((2R,3R,5R,6S)-3,5-dihydroxy-6-methyltetrahydro-2H-pyran-2-yl)oxy)pentanoyl)oxy)-6-methyl-5-(((R)-2-methyl-3-ureidopropanoyl)oxy)tetrahydro-2H-pyran-2-yl)oxy)pentanoic acid]
induction of the eurystomatous mouth form [6, 10]: inactive

Reference: patent US9445596B2, “Small molecule compounds for the control of nematodes” (California Institute of Technology, priority 2011, dated 2016)
